What all share (type): cell-based
Experiment [1] concerns Staphylococcus aureus 209 P JC-1. Put plainly: Minimum Inhibitory Concentration (MIC), antibacterial spectrum in vitro. Conditions: Staphylococcus aureus 209 P JC-1; for MIC: 209PJC1, read-out: Minimum Inhibitory Concentration (MIC).
Experiment [2] concerns Streptococcus faecalis ATCC 8043. Described as above. Conditions: Streptococcus faecalis ATCC 8043; for MIC: Enterococcus faecalis, ATCC8043, read-out: Minimum Inhibitory Concentration (MIC).
In experiment [3] the test system is Esherichia coli NIHJ JC-2. Described as above.
Experiment [4] relates to Klebsiella pneumoniae PCI 602. Described as above. Conditions: Klebsiella pneumoniae PCI 602; for MIC: PCI602, read-out: Minimum Inhibitory Concentration (MIC).
Experiment [5] relates to Salmonella typhimurium LT-2. Described as above. Conditions: Salmonella typhimurium LT-2; for MIC: Salmonella enterica, read-out: Minimum Inhibitory Concentration (MIC).
The next experiment concerns Proteus morganii 1510. Described as above. Conditions: Proteus morganii 1510; for MIC: Morganella morganii, read-out: Minimum Inhibitory Concentration (MIC).
In experiment [6] the test system is Citrobacter freundii GN-346. The description is as above. Conditions: Citrobacter freundii GN-346; for MIC: GN346, read-out: Minimum Inhibitory Concentration (MIC).
Experiment [7] concerns Pseudomonas aeruginosa MB-3833. Described as above. Conditions: Pseudomonas aeruginosa MB-3833; for MIC: MB3833, read-out: Minimum Inhibitory Concentration (MIC).
Experiment [8] concerns Pseudomonas aeruginosa E-2. Described as above. The note with it: Pseudomonas aeruginosa E-2; for MIC: E2, read-out: Minimum Inhibitory Concentration (MIC).
The test system of a further experiment is Pseudomonas aeruginosa. In words: Antibacterial activity against Pseudomonas aeruginosa (from Table 1). The note with it: in words.

10 compounds from patent US4645769A, “1-oxa-1-dethia-cephalosporin compounds and antibacterial agent comprising the same” (Merck & Co., Inc., priority 1985, dated 1987) can be followed below.

In brackets after ≈: the same amount, converted by molar mass. Structures can show the parent of a compound that is named as a salt.

With `CC1OC2C(NC(=O)C(=NOC(C)(C)C(=O)O)c3csc(N)n3)C(=O)N2C(C(=O)[O-])=C1CSc1cc[n+](CC(F)(F)F)cc1` [Compound 4, (6R,7R)-7-((Z)-2-(2-Aminothiazole-4-yl)-2-(2-carboxyprop-2-oxyimino)acetamide)-(2S)-2-methyl-3-(1-(2,2,2-trifluoroethyl)pyridinium-4-ylthionethyl)-1-oxa-1-dethia-3-ceph-4-carboxylate (Sodium Salt)], the MIC turned out to be 1.56 µg/mL in experiment [1]; 50 µg/mL in experiment [2]; 0.2 µg/mL in experiment [3]; 0.39 µg/mL in experiment [4]; 0.05 µg/mL in [5]; 0.2 µg/mL in the experiment with Proteus morganii 1510. Moreover, the MIC in experiment [6] turned out to be 1.56 µg/mL; in experiment [7], 3.13 µg/mL; in [8], 3.13 µg/mL. Also, the “effectiveness against Pseudomonas aeruginosa” value (“effectiveness” below) with Pseudomonas aeruginosa is “effective against Pseudomonas aeruginosa”.

For `CC1OC2C(NC(=O)C(=NOC(C)(C)C(=O)O)c3csc(N)n3)C(=O)N2C(C(=O)[O-])=C1CSc1cc[n+](CCF)cc1` [Compound 3, (6R,7R)-7-((Z)-2-(2-Aminothiazole-4-yl)-2-(2-carboxyprop-2-oxyimino)acetamide)-(2S)-2-methyl-3-(1-(2-fluoroethyl)pyridinium-4-ylthiomethyl)-1-oxa-1-dethiaceph-3-em-4-carboxylate (Sodium Salt)], the MIC was 0.78 µg/mL in [1]; 25 µg/mL in experiment [2]; 0.2 µg/mL in experiment [3]; 0.2 µg/mL in experiment [4]; less than 0.025 µg/mL in experiment [5]; 0.2 µg/mL with Proteus morganii 1510. The values for the MIC in experiment [6], in experiment [7] and in experiment [8] were 0.78 µg/mL, 1.56 µg/mL and 1.56 µg/mL, respectively. The “effectiveness” value in the experiment with Pseudomonas aeruginosa is recorded as “effective against Pseudomonas aeruginosa”.

In the case of `CC(C)(ON=C(C(=O)NC1C(=O)N2C(C(=O)[O-])=C(CSc3cc[n+](CCF)cc3)COC12)c1csc(N)n1)C(=O)O` [Compound 15, (6R,7R)-7-((Z)-2-(2-Aminothiazole-4-yl)-2-2-carboxyprop-2-oxyimino)acetamide)-3-((2-fluoroethyl)pyridinium-4-ylthiomethyl)-1-oxa-1-dethiaceph-3-em-4-carboxylate], the MIC in [1] came to 6.25 µg/mL (≈ 10.3 µM); in [2], 50 µg/mL (≈ 82.2 µM); in experiment [3], 0.1 µg/mL (≈ 0.164 µM); in experiment [4], 0.1 µg/mL (≈ 0.164 µM); in experiment [5], 0.5 µg/mL (≈ 0.822 µM); in the experiment on Proteus morganii 1510 it was 6.25 µg/mL (≈ 10.3 µM). The MIC in experiment [6] was 50 µg/mL (≈ 82.2 µM); in experiment [7] it was 3.13 µg/mL (≈ 5.14 µM); in experiment [8], 3.13 µg/mL (≈ 5.14 µM). In addition, in the experiment with Pseudomonas aeruginosa, the “effectiveness” value is listed as “effective against Pseudomonas aeruginosa”.

Regarding `CC1OC2C(NC(=O)C(=NOC(C)(C)C(=O)O)c3csc(N)n3)C(=O)N2C(C(=O)[O-])=C1CSc1cc[n+](CC(=O)O)cc1` [Compound 5, (6R,7R)-7-((Z)-2-(2-Aminothiazole-4-yl)-2-(2-carboxyprop-2-oxyimino)acetamide)-(2S)-2-methyl-3-(1-carboxymethylpyridinium-4-ylthiomethyl-1-oxa-1-dethiaceph-3-em-4-carboxylate (Sodium Salt)], the MIC in [1] amounted to 12.5 µg/mL; in experiment [2], 50 µg/mL; in experiment [3], 0.39 µg/mL; in [4], 0.39 µg/mL; in experiment [5] it was 0.1 µg/mL; with Proteus morganii 1510, 1.56 µg/mL. For the same compound, the MIC came to 3.13 µg/mL in [6], 3.13 µg/mL in experiment [7] and 6.25 µg/mL in experiment [8].

Regarding `C[C@@H]1O[C@@H]2[C@@H](NC(=O)/C(=N\OCC(=O)[O-])c3csc(N)n3)C(=O)N2C(C(=O)[O-])=C1CSc1cc[n+](C)cc1.[Na+]` [Compound 18, (6R,7R)-7-((Z)-2-(2-Aminothiazole-4-yl)-2-carboxymethoxyiminoacetamide)-(2S)-2-methyl-3-(1-methylpyridinium-4-ylthiomethyl)-1-oxa-1-dethiaceph-3-em-4-carboxylate (Sodium Salt)], the “Minimum Inhibitory Concentration (MIC)” value is 0.78 µg/mL in [1]; 25 µg/mL in experiment [2]; 0.05 µg/mL in [3]; 0.10 µg/mL in experiment [4]; less than 0.025 µg/mL in [5]; 0.10 µg/mL with Proteus morganii 1510. For the same compound, the “Minimum Inhibitory Concentration (MIC)” value in experiment [6], in experiment [7] and in experiment [8] was 1.56 µg/mL in each case.

In the case of `CC1OC2C(NC(=O)C(=NOCC(=O)O)c3csc(N)n3)C(=O)N2C(C(=O)[O-])=C1CSc1cc[n+](CCF)cc1` [Compound 19, (6R,7R)-7-((Z)-2-(2-Aminothiazole-4-yl)-2-carboxymethoxyiminoacetamide)-(2S)-2-methyl-3-(1-(2-fluoroethyl)pyridinium-4-ylthiomethyl)-1-oxa-1-dethiaceph-3-em-4-carboxylate (Sodium Salt)], the MIC was 3.13 µg/mL in experiment [1]; more than 100 µg/mL in [2]; 0.78 µg/mL in [3]; 0.39 µg/mL in experiment [4]; 0.1 µg/mL in experiment [5]; 0.2 µg/mL with Proteus morganii 1510. In addition, the values for the MIC in experiment [6], in [7] and in experiment [8] were 1.56 µg/mL, 3.13 µg/mL and 3.13 µg/mL, respectively.

With `CC1OC2C(NC(=O)C(=NOC(C)(C)C(=O)O)c3csc(N)n3)C(=O)N2C(C(=O)[O-])=C1CSc1cc[n+](C(CF)CF)cc1` [Compound 17, (6R,7R)-7-((Z)-2-(2-Aminothiazole-4-yl)-2-(2-carboxyprop-2-oxyimino)acetamide)-(2S)-2-methyl-3-(1-(1,3-difluoroprop-2-yl)-pyridinium-4-ylthiomethyl)-1-oxa-1-dethiaceph-3-em-4-carboxylate (Sodium Salt)], the MIC in experiment [1] is 0.78 µg/mL; in experiment [2] it was 25 µg/mL; in [3], 0.025 µg/mL; in experiment [4] it was 0.05 µg/mL; in experiment [5], less than 0.025 µg/mL; with Proteus morganii 1510, 0.2 µg/mL. In addition, the MIC in [6], in [7] and in experiment [8] was 1.56 µg/mL each time.

Regarding `CCN1CCN(C(=O)NC(C(=O)NC2C(=O)N3C(C(=O)[O-])=C(CSc4cc[n+](CC(=O)O)cc4)COC23)c2csc(N)n2)C(=O)C1=O` (racemic) [Compound 21, (6R,7R)-7-(DL-2-(2-Aminothiazole-4-yl)-2-(4-ethyl-2,3-dioxopiperazine-1-ylcarboxamide)acetamide)-3-(1-carboxymethylpyridinium-4-yl-thiomethyl)-1-oxa-1-dethiaceph-3-em-4-carboxylate (Sodium Salt)], the MIC in experiment [1] stood at 1.56 µg/mL; in [2], 50 µg/mL; in experiment [3], 0.05 µg/mL; in experiment [4], 0.05 µg/mL; in [5], 0.1 µg/mL; in the experiment on Proteus morganii 1510, 12.5 µg/mL. Further, the MIC in experiment [6], in [7] and in experiment [8] was more than 100 µg/mL each time.

`CC[n+]1ccc(SCC2=C(C(=O)[O-])N3C(=O)C(NC(=O)C(=NOC(C)(C)C(=O)O)c4csc(N)n4)C3OC2C)cc1` [Compound 2, (6R,7R)-7-((Z)-2-(2-Aminothiazole-4-yl)-2-(2-carboxyprop-2-oxyimino)acetamide)-(2S)-2-methyl-3-(1-ethyl-pyridinium-4-ylthiomethyl)-1-oxa-1-dethiaceph-3-em-4-carboxylate (Sodium Salt)]: the MIC in experiment [1] is 0.78 µg/mL; in experiment [2], 50 µg/mL; in [3] it was 0.2 µg/mL; in experiment [4], 0.2 µg/mL; in experiment [5], less than 0.025 µg/mL; with Proteus morganii 1510, 0.1 µg/mL. In addition, the values for the MIC in experiment [6], in experiment [7] and in experiment [8] were 0.78 µg/mL, 3.13 µg/mL and 3.13 µg/mL, respectively. For the same compound, the “effectiveness” value in the experiment on Pseudomonas aeruginosa is given as “effective against Pseudomonas aeruginosa”.

As to `CCN1CCN(C(=O)NC(C(=O)NC2C(=O)N3C(C(=O)[O-])=C(CSc4cc[n+](C)cc4)COC23)c2csc(N)n2)C(=O)C1=O` (racemic) [Compound 20, (6R,7R)-7-(DL-2-(2-Aminothiazole-4-yl)-2-(4-ethyl-2,3-dioxopiperazine-1-ylcarboxamide)acetamide)-3-(1-methylpyridinium-4-ylthiomethyl)-1-oxa-1-dethiaceph-3-em-4-carboxylate (Sodium Salt)], the MIC in experiment [1] is 0.39 µg/mL; in [2], more than 100 µg/mL; in experiment [3], 0.1 µg/mL; in [4], 0.2 µg/mL; in [5] it was 0.2 µg/mL; with Proteus morganii 1510, 6.25 µg/mL. For the same compound, the MIC in [6] came out at 25 µg/mL; in experiment [7] it was 100 µg/mL; in [8] it was 25 µg/mL.
